Measured values from PubChem BioAssay AID1918953 (Molecular Pharmacology Branch, DTP, NCI, 2023).
Where “and” joins values, the source holds several entries; their conditions need not be identical. Equal entries are not always repeated. One block for each compound: values may come before it.

Test system: MDA-MB-231 complex spheroid viability
Experiment: Anticancer human tumor MDA-MB-231/ATCC cell line growth inhibition;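 further: drug exposure lasted 7 days starting on day 3 of spheroid growth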
Details: for viability, T/C: stronger effect = lower value
Text: Multicellular complex tumor spheroid response to LSD1 Inhibitor Iadademstat in combination with a variety of drugs and investigational agents in selected tumor cell lines
The current study was undertaken to assess response to LSD1 inhibitors in combination with standard-of-care drugs and investigational agents in solid tumor complex spheroid models as well as in the K-562 leukemia. Complex spheroids include a stromal component modeled by human endothelial cells (HUVEC) and fibroblasts modeled by human mesenchymal stem cells (MSCs). The concentration ranges selected for each drug and investigational agent were based upon clinically achievable concentrations if the clinical Cmax of the agent was known.
Compounds. The drugs and investigational agents used in this study are listed on Table 1. All of the agents used, including staurosporine (NSC755774) and gemcitabine (NSC613327), were obtained from the Developmental Therapeutics Program, NCI. FDA-approved anticancer drugs are available from the NCI at http://dtp.nci.nih.gov/branches/dscb/oncology_drugset_explanation.html. Drugs and investigational agents were >95% pure by proton nuclear magnetic resonance (NMR) and liquid chromatography/mass spectrometry (LC/MS). Stock solutions were prepared at 400x in DMSO, stored at -70 degrees C, and diluted in fresh medium prior to their use. The final concentration of DMSO in cell culture wells never exceeded 0.25% (v/v). The FDA-approved anticancer drug set is available from the Developmental Therapeutics Program at https://dtp.cancer.gov/organization/dscb/obtaining/available_plates.htm. All drugs and investigational agents were tested over a range starting from a high concentration at or near the clinical Cmax and decreasing in half-log increments. If the clinical Cmax for an agent had not been determined, the highest concentration tested was 10 microM.
Cell Lines. The patient-derived cancer cell (PDC) lines: 292921-168-R-J2-PDC, K24384-001-R-PDC, and 521955-158-R2-J5-PDC pancreatic carcinomas, 556581-035-R-J1 ovarian carcinoma, 324938-238-R-J1-PDC, 855422-203-R-J1-PDC and 883617-216-R-J1-PDC urothelial bladder carcinomas, 743489-274-T-PDC renal cell carcinoma, 138582-R-J1 Merkel cell tumor, K60290-347-R-J1 and K57222-313-R-J1-PDC glioblastomas, 653999-131-R-J2-PDC, LG0703-F948-PDC, and 349418-098-R-PDC non-small cell lung carcinomas, 885512-296-R-J2-PDC, 171881-019-R-J1-PDC breast carcinomas and 186277-243-T-J2-PDC and 233499-124-R-J2-PDC colon carcinomas were obtained from the NCI Patient-Derived Models Repository (PDMR, https://pdmr.cancer.gov). The established cell lines NCI/ADR-RES (RRID:CVCL_14520 and OVCAR-5 (RRID:CVCL_1628) ovarian carcinomas, 786-O (RRID:CVCL_1051) and A498 (RRID:CVCL_A498) renal cell carcinoma, NCI-H211 (ATCC, cat. CRL-5824; RRID:CVCL_1529), NCI-H196 (ATCC, cat. CRL-5823, RRID:CVCL_1509), SW 1271 (ATCC, cat. CRL-2177, RRID:CVCL_1716) and NCI-H1876 (ATCC, cat. CRL-5902, RRID:CVCL_1503) small cell lung carcinomas, MDA-MB-231 (RRID:CVCL_0062) and MDA-MB-468 (RRID:CVCL_0419)breast carcinomas (10-12). Pooled donor human umbilical vein endothelial cells (HUVEC, Lonza, cat. CC-2519) and human mesenchymal stem cells (hMSC, Lonza, cat. PT-2501) were purchased from Lonza (Walkersville, MD).
Cell Culture. All cells were maintained in an incubator at 37 degrees C and 5% CO2 with 95% humidity. The PDC lines were cultured according to standard operating procedures established by the NCI PDMR (https://pdmr.cancer.gov). Briefly all PDCs were thawed and cultured in Matrigel-coated flasks prepared with a working solution of 1X Ham's F-12 nutrient mix, without supplementation (Invitrogen, Waltham, MA, cat. 11765054), 100 U/mL penicillin-streptomycin (Invitrogen, cat. 15140122), and 2.5% Matrigel (Corning Inc., Corning, NY, cat. 354248) for the first three passages. […]

[1] = curve of first compound, second compound 0.1 µM
[2] = curve of first compound, second compound 0.316 µM
[3] = curve of first compound, second compound 1 µM
[4] = curve of first compound, second compound 3.16 µM
[5] = curve of first compound, second compound 10 µM
[6] = second compound 0.1 µM, first compound 0.00316 µM
[7] = second compound 0.1 µM, first compound 0.01 µM
[8] = second compound 0.1 µM, first compound 0.0316 µM
[9] = second compound 0.1 µM, first compound 0.1 µM
[10] = second compound 0.316 µM, first compound 0.00316 µM
[11] = second compound 0.316 µM, first compound 0.01 µM
[12] = second compound 0.316 µM, first compound 0.0316 µM
[13] = second compound 0.316 µM, first compound 0.1 µM
[14] = second compound 1 µM, first compound 0.00316 µM
[15] = second compound 1 µM, first compound 0.01 µM
[16] = second compound 1 µM, first compound 0.0316 µM
[17] = second compound 1 µM, first compound 0.1 µM
[18] = second compound 3.16 µM, first compound 0.00316 µM
[19] = second compound 3.16 µM, first compound 0.01 µM
[20] = second compound 3.16 µM, first compound 0.0316 µM
[21] = second compound 3.16 µM, first compound 0.1 µM
[22] = second compound 10 µM, first compound 0.00316 µM
[23] = second compound 10 µM, first compound 0.01 µM
[24] = second compound 10 µM, first compound 0.0316 µM
[25] = second compound 10 µM, first compound 0.1 µM

Structure (SMILES): Nc1ncn(C2CC(O)C(CO)O2)c(=O)n1 (configuration not stated) + NC1CCC(NC2CC2c2ccccc2)CC1
IC50 [1]: > 1000 nM
IC50 [2]: > 1000 nM
IC50 [3]: > 1000 nM
IC50 [4]: > 1000 nM
IC50 [5]: 283 nM
viability, T/C [6]: 94%
viability, T/C [7]: 94.1%
viability, T/C [8]: 92.3%
viability, T/C [9]: 81.3%
viability, T/C (second compound 0.1 µM, first compound 0.316 µM): 71.7%
viability, T/C (second compound 0.1 µM, first compound 1 µM): 60.4%
viability, T/C [10]: 98.2%
viability, T/C [11]: 96.7%
viability, T/C [12]: 92.8%
viability, T/C [13]: 86.3%
viability, T/C (second compound 0.316 µM, first compound 0.316 µM): 66.8%
viability, T/C (second compound 0.316 µM, first compound 1 µM): 62.7%
viability, T/C [14]: 96.9%
viability, T/C [15]: 94.5%
viability, T/C [16]: 89.2%
viability, T/C [17]: 71.5%
viability, T/C (second compound 1 µM, first compound 0.316 µM): 67.4%
viability, T/C (second compound 1 µM, first compound 1 µM): 63.9%
viability, T/C [18]: 86%
viability, T/C [19]: 84.1%
viability, T/C [20]: 79.2%
viability, T/C [21]: 72.8%
viability, T/C (second compound 3.16 µM, first compound 0.316 µM): 59%
viability, T/C (second compound 3.16 µM, first compound 1 µM): 54.9%
viability, T/C [22]: 67%
viability, T/C [23]: 65.5%
viability, T/C [24]: 63%
viability, T/C [25]: 55.4%
viability, T/C (second compound 10 µM, first compound 0.316 µM): 45.2%
viability, T/C (second compound 10 µM, first compound 1 µM): 45.1%

Structure (SMILES): CC(C)CC(NC(=O)CNC(=O)c1cc(Cl)ccc1Cl)B1OC(=O)CC(CC(=O)O)(C(=O)O)O1 (configuration not stated) + NC1CC1c1ccc(-c2cccc(O)c2)cc1
IC50 [1]: 4.37 nM
IC50 [2]: 3.09 nM
IC50 [3]: 2.35 nM
IC50 [4]: 2.49 nM
IC50 [5]: 1.01 nM
viability, T/C (second compound 0.1 µM, first compound 0.000316 µM): 85.1%
viability, T/C (second compound 0.1 µM, first compound 0.001 µM): 93.9%
viability, T/C [6]: 62.9%
viability, T/C [7]: 14.6%
viability, T/C [8]: 1.93%
viability, T/C [9]: 1.29%
viability, T/C (second compound 0.316 µM, first compound 0.000316 µM): 67.8%
viability, T/C (second compound 0.316 µM, first compound 0.001 µM): 73.3%
viability, T/C [10]: 48.4%
viability, T/C [11]: 11.8%
viability, T/C [12]: 0.83%
viability, T/C [13]: 0.29%
viability, T/C (second compound 1 µM, first compound 0.000316 µM): 61.7%
viability, T/C (second compound 1 µM, first compound 0.001 µM): 66%
viability, T/C [14]: 44.4%
viability, T/C [15]: 13.8%
viability, T/C [16]: 0.95%
viability, T/C [17]: 0.24%
viability, T/C (second compound 3.16 µM, first compound 0.000316 µM): 61.8%
viability, T/C (second compound 3.16 µM, first compound 0.001 µM): 73.7%
viability, T/C [18]: 43.4%
viability, T/C [19]: 12.7%
viability, T/C [20]: 0.98%
viability, T/C [21]: 0.37%
viability, T/C (second compound 10 µM, first compound 0.000316 µM): 48%
viability, T/C (second compound 10 µM, first compound 0.001 µM): 55.2%
viability, T/C [22]: 30.4%
viability, T/C [23]: 7.98%
viability, T/C [24]: 0.83%
viability, T/C [25]: 0.27%

IC50 (curve of compound): 14.8 nM and 8.3 nM
Structure (SMILES): Nc1ncn(C2CC(O)C(CO)S2)c(=O)n1 (configuration not stated)
viability, T/C (compound 0.000949 µM): 90.3% and 85%
viability, T/C (compound 0.003 µM): 72.3% and 68.7%
viability, T/C (compound 0.00949 µM): 61% and 45.8%
viability, T/C (compound 0.03 µM): 37.2% and 31.3%
viability, T/C (compound 0.0949 µM): 20.2% and 19.9%
viability, T/C (compound 0.3 µM): 11.1% and 9.34%

Structure (SMILES): Nc1ccn(C2OC(CO)C(O)C2(F)F)c(=O)n1 (configuration not stated) + NC1CCC(NC2CC2c2ccccc2)CC1
IC50 [1]: < 0.949 nM
IC50 [2]: < 0.949 nM
IC50 [3]: < 0.949 nM
IC50 [4]: < 0.949 nM
IC50 [5]: < 0.949 nM
viability, T/C (second compound 0.1 µM, first compound 0.000949 µM): 23.4%
viability, T/C (second compound 0.1 µM, first compound 0.003 µM): 18.9%
viability, T/C (second compound 0.1 µM, first compound 0.00949 µM): 17.4%
viability, T/C (second compound 0.1 µM, first compound 0.03 µM): 15.9%
viability, T/C (second compound 0.1 µM, first compound 0.0949 µM): 8.32%
viability, T/C (second compound 0.1 µM, first compound 0.3 µM): 6.14%
viability, T/C (second compound 0.316 µM, first compound 0.000949 µM): 24.3%
viability, T/C (second compound 0.316 µM, first compound 0.003 µM): 19.6%
viability, T/C (second compound 0.316 µM, first compound 0.00949 µM): 19%
viability, T/C (second compound 0.316 µM, first compound 0.03 µM): 16%
viability, T/C (second compound 0.316 µM, first compound 0.0949 µM): 8.93%
viability, T/C (second compound 0.316 µM, first compound 0.3 µM): 6.74%
viability, T/C (second compound 1 µM, first compound 0.000949 µM): 22.2%
viability, T/C (second compound 1 µM, first compound 0.003 µM): 17.9%
viability, T/C (second compound 1 µM, first compound 0.00949 µM): 18.2%
viability, T/C (second compound 1 µM, first compound 0.03 µM): 13.6%
viability, T/C (second compound 1 µM, first compound 0.0949 µM): 8.49%
viability, T/C (second compound 1 µM, first compound 0.3 µM): 7.33%
viability, T/C (second compound 3.16 µM, first compound 0.000949 µM): 23.7%
viability, T/C (second compound 3.16 µM, first compound 0.003 µM): 18.9%
viability, T/C (second compound 3.16 µM, first compound 0.00949 µM): 17.2%
viability, T/C (second compound 3.16 µM, first compound 0.03 µM): 12.8%
viability, T/C (second compound 3.16 µM, first compound 0.0949 µM): 9.01%
viability, T/C (second compound 3.16 µM, first compound 0.3 µM): 6.68%
viability, T/C (second compound 10 µM, first compound 0.000949 µM): 19.2%
viability, T/C (second compound 10 µM, first compound 0.003 µM): 19.2%
viability, T/C (second compound 10 µM, first compound 0.00949 µM): 14.4%
viability, T/C (second compound 10 µM, first compound 0.03 µM): 10.3%
viability, T/C (second compound 10 µM, first compound 0.0949 µM): 6.87%
viability, T/C (second compound 10 µM, first compound 0.3 µM): 5.84%
